Patent publication US7524880B2, “Crystalline form of a substituted pyrrolidine compound” (Theravance, Inc., priority 2004, dated 2009)
pKi: −log10 of the molar value.

Key:
[1] = biological target: T1, hM2 receptor (Homo sapiens, UniProt P08172); assay: Blockade of agonist-mediated [35S]GTPγS binding; format: biochemical; conditions: CHO-K1 cells expressing the hM2 receptor (membranes); read-out: Ki value for blockade of oxotremorine-stimulated [35S]GTPγS binding
T1 construct: expressed in transfected cells; host or cells: CHO-K1 cells
T1 sequence (P08172 1-466): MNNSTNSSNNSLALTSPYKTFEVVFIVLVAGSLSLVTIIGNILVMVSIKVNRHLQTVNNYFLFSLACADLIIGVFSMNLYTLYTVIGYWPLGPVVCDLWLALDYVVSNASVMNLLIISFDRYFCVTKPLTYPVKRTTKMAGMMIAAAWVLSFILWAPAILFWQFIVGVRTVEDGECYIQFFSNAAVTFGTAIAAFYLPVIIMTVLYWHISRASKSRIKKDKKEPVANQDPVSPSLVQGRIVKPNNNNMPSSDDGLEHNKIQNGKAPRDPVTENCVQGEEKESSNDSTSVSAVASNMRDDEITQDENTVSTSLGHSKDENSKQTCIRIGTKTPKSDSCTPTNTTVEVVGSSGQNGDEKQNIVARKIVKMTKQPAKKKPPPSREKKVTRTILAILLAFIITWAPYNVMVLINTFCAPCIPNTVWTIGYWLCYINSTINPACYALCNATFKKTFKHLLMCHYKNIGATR
Protocol: B. Blockade of Agonist-Mediated [^35 S]GTPγS Binding
In a second functional assay, the functional potency of a test compound is determined by measuring the ability of the compound to block oxotremorine-stimulated [^35S]GTPγS binding in CHO-K1 cells expressing the hM2 receptor.
At the time of use, frozen membranes were thawed and then diluted in assay buffer with a final target tissue concentration of 5-10 μg protein per well. The membranes were briefly homogenized using a Polytron PT-2100 tissue disrupter and then added to the assay plates.
The EC90 value (effective concentration for 90% maximal response) for stimulation of [^35S]GTPγS binding by the agonist oxotremorine was determined in each experiment.
The assay plates were then incubated at 37° C. for 60 minutes. The assay plates were filtered over 1% BSA-pretreated GF/B filters using a PerkinElmer 96-well harvester. The plates were rinsed with ice-cold wash buffer for 3×3 seconds and then air or vacuum dried. Microscint-20 scintillation liquid (50 μL) was added to each well, and each plate was sealed and radioactivity counted on a topcounter (PerkinElmer). Data were analyzed by nonlinear regression analysis with the GraphPad Prism Software package (GraphPad Software, Inc., San Diego, Calif.) using the non-linear regression, one-site competition equation. […]

[2] = biological target: T1, hM2 receptor; assay: Blockade of agonist-mediated inhibition of cAMP accumulation; format: cell-based; conditions: CHO-K1 cells expressing the hM2 receptor; read-out: Ki value for blockade of oxotremorine-inhibition of forskolin-mediated cAMP accumulation
Protocol: A. Blockade of Agonist-Mediated Inhibition of cAMP Accumulation
In this assay, the functional potency of a test compound was determined by measuring the ability of the test compound to block oxotremorine-inhibition of forskolin-mediated cAMP accumulation in CHO-K1 cells expressing the hM2 receptor.
cAMP assays were performed in a radioimmunoassay format using the Flashplate Adenylyl Cyclase Activation Assay System with ^125I-cAMP (NEN SMP004B, PerkinElmer Life Sciences Inc., Boston, Mass.), according to the manufacturer's instructions.
Cells were rinsed once with dPBS and lifted with Trypsin-EDTA solution (0.05% trypsin/0.53 mM EDTA) as described in the Cell Culture and Membrane Preparation section above. […] The cell pellet was then re-suspended in 10 mL dPBS, and the cells were counted with a Coulter Z1 Dual Particle Counter (Beckman Coulter, Fullerton, Calif.). […]
Reactions were incubated for 10 minutes at 37° C. and stopped by addition of 100 μL ice-cold detection buffer. Plates were sealed, incubated overnight at room temperature and counted the next morning on a PerkinElmer TopCount liquid scintillation counter (PerkinElmer Inc., Wellesley, Mass.). The amount of cAMP produced (pmol/well) was calculated based on the counts observed for the samples and cAMP standards, as described in the manufacturer's user manual. […]

pKi [1]: > 8.30
pKi [2]: > 8.30
Compound: CNCCCCCCCCN1CC[C@@H](C(C(N)=O)(c2ccccc2)c2ccccc2)C1 [compound of formula I, 2-[(S)-1-(8-methylaminooctyl)pyrrolidin-3-yl]-2,2-diphenylacetamide]
